Laboratory results from PubChem BioAssay (NCI).
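A five-concentration, 48-hour dose response in 96-well plates underlies each endpoint, interpolated linearly between surrounding concentrations. Definition used: TGI = concentration required for complete inhibition of growth.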

Tests used:
Test in all cases: growth of human tumour cells (NCI), 48 h
SW-620 colon = tested on: SW-620 colon
MALME-3M melanoma = tested on: MALME-3M melanoma
EKVX NSCLC = tested on: EKVX NSCLC
MOLT-4 leukemia = tested on: MOLT-4 leukemia
SNB-19 CNS = tested on: SNB-19 CNS
NCI-H522 lung = tested on: NCI-H522 lung
TK-10 renal = tested on: TK-10 renal
HCT-15 colon = tested on: HCT-15 colon
OVCAR-4 ovarian = tested on: OVCAR-4 ovarian
HL-60(TB) leukemia = tested on: HL-60(TB) leukemia
OVCAR-8 ovarian = tested on: OVCAR-8 ovarian
NCI-H23 lung = tested on: NCI-H23 lung
SF-539 CNS = tested on: SF-539 CNS
MDA-N = tested on: MDA-N
SK-MEL-28 melanoma = tested on: SK-MEL-28 melanoma
MCF7 breast = tested on: MCF7 breast
T-47D breast = tested on: T-47D breast
OVCAR-5 ovarian = tested on: OVCAR-5 ovarian
RPMI-8226 leukemia = tested on: RPMI-8226 leukemia
HS 578T breast = tested on: HS 578T breast

Compound | TGI (SW-620 colon) | TGI (MALME-3M melanoma) | TGI (EKVX NSCLC) | TGI (MOLT-4 leukemia) | TGI (SNB-19 CNS) | TGI (NCI-H522 lung) | TGI (TK-10 renal) | TGI (HCT-15 colon) | TGI (OVCAR-4 ovarian) | TGI (HL-60(TB) leukemia) | TGI (OVCAR-8 ovarian) | TGI (NCI-H23 lung) | TGI (SF-539 CNS) | TGI (MDA-N) | TGI (SK-MEL-28 melanoma) | TGI (MCF7 breast) | TGI (T-47D breast) | TGI (OVCAR-5 ovarian) | TGI (RPMI-8226 leukemia) | TGI (HS 578T breast)
CCOC(=O)Cc1nnc2n(-c3ccccc3)c(=O)c3ccccc3n12 | > 100 µM | > 100 µM | > 100 µM | > 100 µM | > 100 µM | > 100 µM | > 100 µM | > 100 µM | > 100 µM | > 100 µM | > 100 µM | > 100 µM | > 100 µM | > 100 µM | > 100 µM | > 100 µM | > 100 µM | > 100 µM | – | –
c1cc2nnsc2s1 | > 100 µM | > 100 µM | > 100 µM | > 100 µM | > 100 µM | > 100 µM | > 100 µM | > 100 µM | > 100 µM | > 100 µM | > 100 µM | > 100 µM | > 100 µM | – | > 100 µM | – | – | > 100 µM | > 100 µM | –
CC(C)(C)C1CCC2c3c([nH]c4ccccc34)C3C(=O)N(c4ccccc4[N+](=O)[O-])C(=O)C3C2C1 (stereo not drawn) | 27 µM | 43 µM | 44.7 µM | – | 82.5 µM | – | 43.3 µM | 37.6 µM | – | 27.5 µM | > 100 µM | 22.1 µM | 61.3 µM | 43.9 µM | – | 39.1 µM | – | 50.5 µM | > 100 µM | 49.5 µM
CC(=O)OCCOCNC(=S)N/N=C/c1cc([N+](=O)[O-])ccc1O | > 100 µM | > 100 µM | > 100 µM | – | > 100 µM | > 100 µM | > 100 µM | > 100 µM | > 100 µM | > 100 µM | > 100 µM | > 100 µM | > 100 µM | – | > 100 µM | – | – | > 100 µM | – | –
COC1(C)C(=O)N2C1N(C(=O)OC(C)(C)C)CC2(C)C (stereo not drawn) | 37.5 µM | > 100 µM | > 100 µM | > 100 µM | > 100 µM | > 100 µM | > 100 µM | > 100 µM | > 100 µM | > 100 µM | > 100 µM | > 100 µM | > 100 µM | – | > 100 µM | – | – | > 100 µM | > 100 µM | –
CC(=O)OCC1OC(OC2C(COC(C)=O)OC(Sc3ccccc3C)C(OC(C)=O)C2OC(C)=O)C(OC(C)=O)C(OC(C)=O)C1OC(C)=O (stereo not drawn) | > 100 µM | > 100 µM | > 100 µM | > 100 µM | > 100 µM | > 100 µM | > 100 µM | > 100 µM | > 100 µM | – | – | > 100 µM | > 100 µM | – | > 100 µM | – | – | > 100 µM | > 100 µM | –
COc1ccc(C2ON(c3ccccc3)CC=C2C)cc1 (stereo not drawn) | > 100 µM | > 100 µM | > 100 µM | > 100 µM | > 100 µM | 99.5 µM | > 100 µM | > 100 µM | > 100 µM | > 100 µM | > 100 µM | > 100 µM | > 100 µM | – | > 100 µM | – | – | > 100 µM | > 100 µM | –
CC(C)(C)C1CCC2c3c([nH]c4ccccc34)C3C(=O)N(c4ccccc4Cl)C(=O)C3C2C1 (stereo not drawn) | 22.7 µM | 37.1 µM | 31.5 µM | > 100 µM | > 100 µM | – | 51.3 µM | 31.6 µM | – | 50.5 µM | 50 µM | 62.7 µM | – | 29.3 µM | – | – | – | – | > 100 µM | 35.3 µM
CN/C=C(\C(=O)c1ccc(OC)c(OC)c1)c1ccc(OC)cc1 | 37.5 µM | – | > 100 µM | 62 µM | > 100 µM | 36 µM | 37.9 µM | 28.2 µM | 80.1 µM | 32.3 µM | 30.4 µM | > 100 µM | 14.1 µM | – | 39.7 µM | – | – | – | 24.4 µM | –
O=c1[nH]c(=O)n(C2CC(O)C(CO)O2)cc1C(F)(C(F)(F)F)C(F)(F)F (stereo not drawn) | > 100 µM | > 100 µM | > 100 µM | > 100 µM | > 100 µM | > 100 µM | > 100 µM | > 100 µM | > 100 µM | > 100 µM | > 100 µM | > 100 µM | > 100 µM | – | > 100 µM | – | – | > 100 µM | > 100 µM | –
CCOC(=O)CC[C@H](NC(=O)N[C@H](C)c1ccccc1)C(=O)OCC | > 100 µM | – | > 100 µM | 52.5 µM | > 100 µM | – | > 100 µM | > 100 µM | > 100 µM | > 100 µM | > 100 µM | > 100 µM | 45.5 µM | 38.2 µM | 43.8 µM | > 100 µM | – | > 100 µM | > 100 µM | –
COc1ccc2nc3c([N+](=O)[O-])ccc4c3c(c2c1)NCCN4CCN(C)C | 1.98 µM | 1.56 µM | 2.78 µM | 7.67 µM | 2.27 µM | – | 4.75 µM | 1.94 µM | 0.697 µM | – | > 10 µM | 2.86 µM | 1.71 µM | 1.99 µM | 3.08 µM | > 10 µM | – | 9.89 µM | 4.62 µM | 3.91 µM
CN(C)C=Nc1c2ccccc2nc2ccccc12 | – | 12.7 µM | 29.1 µM | 9.05 µM | 17.9 µM | 4.99 µM | 40 µM | 32.8 µM | 21.1 µM | 18.2 µM | 18.3 µM | 15.8 µM | 10.4 µM | – | 5.42 µM | 12.1 µM | 9.67 µM | 32.8 µM | 6.88 µM | 6.82 µM
COc1cc2oc(-c3ccccc3)cc(=O)c2c(O)c1C | > 100 µM | > 100 µM | > 100 µM | > 100 µM | – | > 100 µM | > 100 µM | > 100 µM | > 100 µM | > 100 µM | > 100 µM | > 100 µM | > 100 µM | – | > 100 µM | – | – | > 100 µM | > 100 µM | –
